Source: publication PMC3976407, “Inhibition of Fatty Acid Binding Proteins Elevates Brain Anandamide Levels and Produces Analgesia” (PLoS ONE, 2014)

Columns and labels:
FABP7 = FABP7 (Homo sapiens, UniProt O15540); test: NBD-stearate fluorescence displacement binding
Protocol: Inhibitory constant (Ki) values were elucidated utilizing NBD-stearate fluorescence displacement as described previously [9], [31]. The tests were performed in 96-well plates containing inhibitors (0.1 – 50.0 μM), FABP, and NBD-stearate. Fluorescence intensity was measured with a FLUOstar OPTIMA spectrofluorometer with excitation and emission wavelengths of 460 and 544 nm, respectively.

[1] = system: brain endocannabinoid levels; test: Lipid quantification of brain NAEs and 2-AG; assay type: in vivo; settings: mouse, 20 mg/kg, i.p.
Protocol: Quantification of endogenous NAEs and 2-AG were performed as previously described with minor modifications. Mice were rapidly euthanized by decapitation and their brains flash frozen in liquid nitrogen. The brains were subsequently thawed, weighed, and homogenized in 8 ml of 2∶1∶1 CHCl3:MeOH:Tris (50 mM, pH 8) in the presence of 4 ng d4-PEA, 4 ng d2-OEA, 400 pg d4-AEA, and 40 ng d5-2-AG. Following centrifugation at 4°C, the organic layer was removed and brought up to 8 ml with the same buffer and centrifuged again. The resulting organic layer was dried down with argon and resuspended with 100 μl of 2∶1 CHCl3:MeOH and 10 μl was injected into the Thermo TSQ Quantum Access Triple Quadropole mass spectrometer. LC separation was achieved on a Gemini C18 (50×2 mm×5 μm) equipped with a Gemini C18 SecurityGuard precolumn (4 mm length ×2 mm internal diameter). Mobile phase A consisted of 95∶5% v:v H20:MeOH while mobile phase B was composed of 60∶35∶5 v:v:v i-PrOH:MeOH:H2O and quantification was performed in the positive ion mode with the voltage set at 4 kV. 0.1% formic acid was added to assist in ionization. The sheath pressure was 30 and the capillary was set at 270 °C. The flow rate was 100 μl/min. The gradient started at 0% B and increased to 100% B over 15 min followed by an isocratic gradient of 100% B for 10 min, and was equilibrated for 15 min at 0% B.

Chain of FABP7 (O15540 whole entry, species assumed): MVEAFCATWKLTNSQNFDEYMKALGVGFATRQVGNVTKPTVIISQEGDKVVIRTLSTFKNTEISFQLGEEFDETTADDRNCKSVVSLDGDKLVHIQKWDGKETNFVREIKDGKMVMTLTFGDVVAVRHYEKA

O=C(O)C1C(c2ccccc2)C(C(=O)Oc2cccc3ccccc23)C1c1ccccc1 (stereo not drawn) [SBFI26, alpha-2,4-diphenylcyclobutane-1,3-dicarboxylic acid mono-1-naphthyl ester]
Ki (FABP7): 0.4 µM
Brain 2-AG levels ([1]; 90 min): unaffected
Brain OEA levels ([1]; 90 min): unaffected
Brain PEA levels ([1]; 90 min): unaffected
Brain AEA levels ([1]; tissues harvested 90 min after administration): significantly elevated
